One series has as its target Ephrin type-A receptor 2 (Homo sapiens, UniProt P29317). Put plainly: Inhibition of recombinant human EPH-A2 using poly (Glu,Tyr)4:1 as substrate after 60 mins by ELISA. (ELISA stands for enzyme-linked immunosorbent assay.)
Series [1] deals with Liver microsome. Put plainly: Intrinsic clearance in rat liver microsomes at 0.1 uM after 7 to 60 mins by LC-MS/MS analysis. In kind it is ADME. In general terms: Liver microsomes are vesicles of endoplasmic reticulum, rich in cytochrome P450 enzymes.
The target of series [2] is Insulin-like growth factor 1 receptor (Homo sapiens, UniProt P08069). Put plainly: Inhibition of recombinant human IGF1R using poly (Glu,Tyr)4:1 as substrate after 60 mins by ELISA.
Series [3] deals with T1, Receptor-type tyrosine-protein kinase FLT3 (Homo sapiens, UniProt P36888).
T1 sequence (P36888 whole entry): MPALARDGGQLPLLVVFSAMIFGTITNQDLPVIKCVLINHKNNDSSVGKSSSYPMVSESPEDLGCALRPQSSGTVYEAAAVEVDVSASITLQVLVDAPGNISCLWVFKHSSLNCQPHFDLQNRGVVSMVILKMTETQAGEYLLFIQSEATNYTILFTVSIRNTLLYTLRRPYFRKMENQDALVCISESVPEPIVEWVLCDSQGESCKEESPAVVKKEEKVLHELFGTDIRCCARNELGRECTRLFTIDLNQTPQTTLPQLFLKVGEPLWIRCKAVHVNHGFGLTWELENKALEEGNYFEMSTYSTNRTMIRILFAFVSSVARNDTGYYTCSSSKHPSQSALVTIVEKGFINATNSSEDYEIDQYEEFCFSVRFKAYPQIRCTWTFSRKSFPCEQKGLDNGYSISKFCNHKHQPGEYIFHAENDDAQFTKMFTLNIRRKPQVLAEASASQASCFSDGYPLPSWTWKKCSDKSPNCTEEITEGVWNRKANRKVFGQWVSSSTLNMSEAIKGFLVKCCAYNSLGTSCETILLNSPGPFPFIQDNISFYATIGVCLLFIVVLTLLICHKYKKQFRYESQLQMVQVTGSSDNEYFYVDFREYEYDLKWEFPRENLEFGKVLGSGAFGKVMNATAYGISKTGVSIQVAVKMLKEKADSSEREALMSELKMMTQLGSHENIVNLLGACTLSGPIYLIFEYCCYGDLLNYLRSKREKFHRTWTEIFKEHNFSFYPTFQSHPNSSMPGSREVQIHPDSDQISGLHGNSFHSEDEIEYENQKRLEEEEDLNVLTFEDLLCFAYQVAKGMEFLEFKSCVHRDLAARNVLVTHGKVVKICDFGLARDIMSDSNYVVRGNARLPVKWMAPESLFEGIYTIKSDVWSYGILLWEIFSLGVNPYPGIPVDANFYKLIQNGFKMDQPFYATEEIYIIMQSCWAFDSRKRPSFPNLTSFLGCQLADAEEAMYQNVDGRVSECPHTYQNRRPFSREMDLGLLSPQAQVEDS
Put plainly: Inhibition of recombinant human Flt-3 using poly (Glu,Tyr)4:1 as substrate after 60 mins by ELISA.

Series [4] is described as follows: Solubility of compound in HBSS/HEPES buffer at pH 6.8 by nephelometric analysis in presence of 0.1% BSA. In kind it is physicochemical. The settings on record: HBSS/HEPES buffer with 0.1% BSA.
In series [5] the target is Epidermal growth factor receptor (Homo sapiens, UniProt P00533). Put plainly: Inhibition of recombinant human EGFR using poly (Glu,Tyr)4:1 as substrate after 60 mins by ELISA.
Series [6] in a line: Solubility of compound in HBSS/HEPES buffer at pH 7.4 by nephelometric analysis in presence of 0.1% BSA. In kind it is physicochemical. The settings on record: HBSS/HEPES buffer with 0.1% BSA.
Series [7] can be described thus: AUC (0 to 8 hrs) in mouse plasma at 10 mg/kg, po. It is filed as ADME, organism-based. More on the design: dose 10 mg/kg, time < 8 hr, route oral.
The target in series [8] is Proto-oncogene tyrosine-protein kinase Src (Homo sapiens, UniProt P12931). Put plainly: Inhibition of recombinant human c-Src using poly (Glu,Tyr)4:1 as substrate after 60 mins by ELISA.
Series [9] can be described thus: Antitumor activity against human EBC1 cells xenografted in nude mouse assessed as tumor growth inhibition at 40 mg/kg, po qd administered for 21 days relative control. It is filed as functional. The settings on record: EBC-1, po, 504 h, read-out: TGI. On the technique in general: A xenograft is tissue or cells of one species grown in another, often human tumour cells in immunodeficient mice.

The target of series [10] is Tyrosine-protein kinase ABL1 (Homo sapiens, UniProt P00519). Put plainly: Inhibition of recombinant human ABL using poly (Glu,Tyr)4:1 as substrate after 60 mins by ELISA.
The target of series [11] is T2, Tyrosine-protein kinase receptor UFO (Homo sapiens, UniProt P30530).
T2 sequence (P30530 whole entry): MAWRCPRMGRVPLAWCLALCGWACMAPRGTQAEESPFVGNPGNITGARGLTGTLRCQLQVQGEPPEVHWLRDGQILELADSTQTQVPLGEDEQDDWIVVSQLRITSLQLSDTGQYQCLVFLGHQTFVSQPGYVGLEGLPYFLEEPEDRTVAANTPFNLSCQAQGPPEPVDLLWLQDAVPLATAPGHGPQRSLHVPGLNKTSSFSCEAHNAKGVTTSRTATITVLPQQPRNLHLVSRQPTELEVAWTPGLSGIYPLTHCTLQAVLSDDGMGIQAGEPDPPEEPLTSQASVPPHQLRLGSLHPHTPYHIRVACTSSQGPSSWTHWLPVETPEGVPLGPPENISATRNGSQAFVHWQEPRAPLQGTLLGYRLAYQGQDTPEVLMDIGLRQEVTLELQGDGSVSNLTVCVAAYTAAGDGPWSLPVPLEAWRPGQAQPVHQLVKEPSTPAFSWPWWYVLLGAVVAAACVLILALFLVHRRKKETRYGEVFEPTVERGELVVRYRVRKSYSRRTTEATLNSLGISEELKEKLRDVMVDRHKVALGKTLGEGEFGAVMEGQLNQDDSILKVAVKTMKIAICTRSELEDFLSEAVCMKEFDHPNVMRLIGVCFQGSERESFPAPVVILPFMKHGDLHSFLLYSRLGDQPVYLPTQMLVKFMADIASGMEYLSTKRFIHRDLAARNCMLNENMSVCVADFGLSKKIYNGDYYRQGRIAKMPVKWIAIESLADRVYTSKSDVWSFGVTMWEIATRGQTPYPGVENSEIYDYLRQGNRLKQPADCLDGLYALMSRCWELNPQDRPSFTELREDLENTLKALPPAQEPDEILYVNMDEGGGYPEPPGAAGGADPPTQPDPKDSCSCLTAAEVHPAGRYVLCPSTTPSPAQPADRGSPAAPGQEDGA
Put plainly: Inhibition of recombinant human Axl using poly (Glu,Tyr)4:1 as substrate after 60 mins by ELISA.

Series [12] deals with Platelet-derived growth factor receptor alpha (Homo sapiens, UniProt P16234). Put plainly: Inhibition of recombinant human PDGFR-alpha using poly (Glu,Tyr)4:1 as substrate after 60 mins by ELISA.
Series [13] is described as follows: Apparent permeability from apical to basolateral side in human Caco2 cells after 35 to 95 mins by LC-MS/MS analysis. In kind it is ADME, cell-based. The settings on record: Caco-2.
Series [14] has as its system Liver microsome. Put plainly: Intrinsic clearance in human liver microsomes at 0.1 uM after 7 to 60 mins by LC-MS/MS analysis. In kind it is ADME.
Series [15] deals with Fibroblast growth factor receptor 1 (Homo sapiens, UniProt P11362). Put plainly: Inhibition of recombinant human FGFR1 using poly (Glu,Tyr)4:1 as substrate after 60 mins by ELISA.
Chain of Fibroblast growth factor receptor 1 (P11362 whole entry): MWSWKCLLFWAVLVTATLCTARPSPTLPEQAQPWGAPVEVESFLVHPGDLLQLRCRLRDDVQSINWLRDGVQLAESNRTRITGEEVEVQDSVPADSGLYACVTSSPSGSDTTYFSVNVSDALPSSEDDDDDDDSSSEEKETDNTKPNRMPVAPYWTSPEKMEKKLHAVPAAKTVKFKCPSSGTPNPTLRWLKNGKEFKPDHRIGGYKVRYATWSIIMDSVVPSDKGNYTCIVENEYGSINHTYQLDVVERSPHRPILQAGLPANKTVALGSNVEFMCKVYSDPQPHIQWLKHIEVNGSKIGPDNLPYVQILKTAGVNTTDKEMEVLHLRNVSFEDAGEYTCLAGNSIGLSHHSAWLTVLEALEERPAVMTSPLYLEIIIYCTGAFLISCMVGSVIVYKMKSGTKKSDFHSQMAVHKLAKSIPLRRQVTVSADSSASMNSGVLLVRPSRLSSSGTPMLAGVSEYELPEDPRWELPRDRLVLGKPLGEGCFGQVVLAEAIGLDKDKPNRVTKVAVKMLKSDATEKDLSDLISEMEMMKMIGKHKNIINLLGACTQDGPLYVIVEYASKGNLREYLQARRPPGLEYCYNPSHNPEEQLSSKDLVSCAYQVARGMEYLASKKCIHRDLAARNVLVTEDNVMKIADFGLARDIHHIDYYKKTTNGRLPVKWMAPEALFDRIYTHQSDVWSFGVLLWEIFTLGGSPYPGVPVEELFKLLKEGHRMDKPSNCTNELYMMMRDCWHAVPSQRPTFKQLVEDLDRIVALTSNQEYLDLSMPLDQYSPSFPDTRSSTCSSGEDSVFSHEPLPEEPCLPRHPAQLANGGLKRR

Chain of Insulin-like growth factor 1 receptor (P08069 31-736 limits assumed): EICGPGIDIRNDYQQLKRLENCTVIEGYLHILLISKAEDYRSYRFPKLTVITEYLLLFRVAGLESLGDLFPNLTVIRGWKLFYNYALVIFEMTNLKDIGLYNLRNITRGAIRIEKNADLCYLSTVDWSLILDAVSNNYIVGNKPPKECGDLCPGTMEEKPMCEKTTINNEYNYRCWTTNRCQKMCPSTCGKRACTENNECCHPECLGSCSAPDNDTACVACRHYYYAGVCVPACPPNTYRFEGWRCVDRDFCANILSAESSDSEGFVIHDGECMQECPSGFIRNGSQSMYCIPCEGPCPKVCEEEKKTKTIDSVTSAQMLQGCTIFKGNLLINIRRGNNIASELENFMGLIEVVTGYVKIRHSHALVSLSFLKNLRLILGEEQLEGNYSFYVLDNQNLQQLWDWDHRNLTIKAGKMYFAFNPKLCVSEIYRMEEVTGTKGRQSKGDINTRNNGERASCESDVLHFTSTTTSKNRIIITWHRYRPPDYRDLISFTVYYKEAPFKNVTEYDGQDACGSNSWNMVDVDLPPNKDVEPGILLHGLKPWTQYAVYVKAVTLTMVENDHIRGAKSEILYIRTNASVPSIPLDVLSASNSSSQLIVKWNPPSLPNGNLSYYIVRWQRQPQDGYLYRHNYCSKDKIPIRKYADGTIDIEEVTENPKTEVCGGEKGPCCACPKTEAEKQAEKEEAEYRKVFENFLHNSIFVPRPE
Chain of Insulin-like growth factor 1 receptor (P08069 741-1367 limits assumed): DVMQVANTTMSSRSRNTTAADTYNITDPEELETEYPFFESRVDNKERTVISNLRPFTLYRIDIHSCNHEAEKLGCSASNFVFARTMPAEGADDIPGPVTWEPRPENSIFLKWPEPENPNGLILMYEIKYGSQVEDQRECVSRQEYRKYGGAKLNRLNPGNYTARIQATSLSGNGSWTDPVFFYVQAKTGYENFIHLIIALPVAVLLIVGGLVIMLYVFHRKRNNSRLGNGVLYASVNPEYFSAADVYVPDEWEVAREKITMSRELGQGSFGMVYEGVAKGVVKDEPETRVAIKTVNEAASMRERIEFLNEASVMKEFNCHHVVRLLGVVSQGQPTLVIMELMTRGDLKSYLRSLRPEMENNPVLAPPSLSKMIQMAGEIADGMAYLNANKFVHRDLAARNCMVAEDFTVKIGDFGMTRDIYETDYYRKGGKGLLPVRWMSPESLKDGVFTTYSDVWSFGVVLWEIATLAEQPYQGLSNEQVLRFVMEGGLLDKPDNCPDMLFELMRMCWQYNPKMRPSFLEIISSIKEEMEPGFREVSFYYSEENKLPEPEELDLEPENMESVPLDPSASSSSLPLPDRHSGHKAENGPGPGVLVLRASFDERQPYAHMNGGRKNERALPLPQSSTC
Chain of Epidermal growth factor receptor (P00533 whole entry): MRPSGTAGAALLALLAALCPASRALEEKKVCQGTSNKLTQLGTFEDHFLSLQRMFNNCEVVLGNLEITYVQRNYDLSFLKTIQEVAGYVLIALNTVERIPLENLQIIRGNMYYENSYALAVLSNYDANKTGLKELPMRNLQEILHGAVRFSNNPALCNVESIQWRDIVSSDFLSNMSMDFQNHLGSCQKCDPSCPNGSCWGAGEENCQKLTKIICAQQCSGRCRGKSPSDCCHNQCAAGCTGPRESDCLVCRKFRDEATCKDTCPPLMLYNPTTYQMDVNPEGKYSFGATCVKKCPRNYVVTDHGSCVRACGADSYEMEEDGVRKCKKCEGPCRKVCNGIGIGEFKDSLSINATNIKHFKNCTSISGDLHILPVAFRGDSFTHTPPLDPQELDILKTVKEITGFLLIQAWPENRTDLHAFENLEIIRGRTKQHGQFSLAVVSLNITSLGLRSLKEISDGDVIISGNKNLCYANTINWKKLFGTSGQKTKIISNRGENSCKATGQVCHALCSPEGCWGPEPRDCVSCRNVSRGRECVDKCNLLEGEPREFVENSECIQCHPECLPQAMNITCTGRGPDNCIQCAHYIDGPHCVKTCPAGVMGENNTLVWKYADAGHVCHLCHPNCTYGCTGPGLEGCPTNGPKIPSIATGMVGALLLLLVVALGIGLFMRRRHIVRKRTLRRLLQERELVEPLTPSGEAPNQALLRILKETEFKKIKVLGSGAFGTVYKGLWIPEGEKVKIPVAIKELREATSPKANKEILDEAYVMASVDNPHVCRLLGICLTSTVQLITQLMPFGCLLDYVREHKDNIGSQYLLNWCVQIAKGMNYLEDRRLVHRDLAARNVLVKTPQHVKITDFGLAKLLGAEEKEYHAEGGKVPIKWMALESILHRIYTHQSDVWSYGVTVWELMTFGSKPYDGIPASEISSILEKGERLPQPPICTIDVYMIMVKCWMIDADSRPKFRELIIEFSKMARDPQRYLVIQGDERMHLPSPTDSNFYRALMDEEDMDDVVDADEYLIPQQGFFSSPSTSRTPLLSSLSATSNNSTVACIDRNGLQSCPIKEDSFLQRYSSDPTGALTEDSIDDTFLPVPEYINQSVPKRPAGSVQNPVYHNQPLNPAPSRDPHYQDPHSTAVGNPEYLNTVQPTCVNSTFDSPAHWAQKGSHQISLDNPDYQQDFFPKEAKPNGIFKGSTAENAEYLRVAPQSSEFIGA
Chain of Platelet-derived growth factor receptor alpha (P16234 whole entry): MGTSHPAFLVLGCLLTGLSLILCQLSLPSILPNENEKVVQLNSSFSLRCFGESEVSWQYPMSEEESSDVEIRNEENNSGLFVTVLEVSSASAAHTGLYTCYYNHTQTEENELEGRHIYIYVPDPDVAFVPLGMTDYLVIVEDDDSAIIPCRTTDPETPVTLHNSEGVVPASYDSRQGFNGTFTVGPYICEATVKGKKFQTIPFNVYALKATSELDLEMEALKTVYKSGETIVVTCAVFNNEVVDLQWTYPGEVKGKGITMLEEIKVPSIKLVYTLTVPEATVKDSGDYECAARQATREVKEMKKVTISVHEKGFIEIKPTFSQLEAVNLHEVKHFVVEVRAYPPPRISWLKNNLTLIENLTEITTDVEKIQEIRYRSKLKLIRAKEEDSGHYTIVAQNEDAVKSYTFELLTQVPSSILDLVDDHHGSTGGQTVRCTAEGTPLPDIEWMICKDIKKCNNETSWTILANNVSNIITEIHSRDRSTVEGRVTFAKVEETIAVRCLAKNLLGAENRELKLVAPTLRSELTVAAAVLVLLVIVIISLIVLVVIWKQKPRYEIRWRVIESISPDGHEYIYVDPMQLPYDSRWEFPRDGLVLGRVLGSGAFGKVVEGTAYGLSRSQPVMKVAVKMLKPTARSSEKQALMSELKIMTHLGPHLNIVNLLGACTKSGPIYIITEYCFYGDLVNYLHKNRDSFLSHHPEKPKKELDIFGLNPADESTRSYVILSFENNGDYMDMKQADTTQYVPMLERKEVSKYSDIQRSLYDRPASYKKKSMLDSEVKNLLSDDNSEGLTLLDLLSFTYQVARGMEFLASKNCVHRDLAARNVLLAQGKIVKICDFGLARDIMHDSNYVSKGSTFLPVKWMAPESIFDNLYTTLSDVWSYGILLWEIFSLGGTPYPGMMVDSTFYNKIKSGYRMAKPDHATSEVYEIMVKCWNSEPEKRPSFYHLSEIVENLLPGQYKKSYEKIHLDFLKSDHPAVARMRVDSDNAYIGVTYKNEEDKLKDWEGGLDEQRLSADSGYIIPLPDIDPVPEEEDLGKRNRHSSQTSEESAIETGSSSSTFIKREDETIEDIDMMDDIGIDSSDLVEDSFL
Chain of Proto-oncogene tyrosine-protein kinase Src (P12931 2-536 limits assumed): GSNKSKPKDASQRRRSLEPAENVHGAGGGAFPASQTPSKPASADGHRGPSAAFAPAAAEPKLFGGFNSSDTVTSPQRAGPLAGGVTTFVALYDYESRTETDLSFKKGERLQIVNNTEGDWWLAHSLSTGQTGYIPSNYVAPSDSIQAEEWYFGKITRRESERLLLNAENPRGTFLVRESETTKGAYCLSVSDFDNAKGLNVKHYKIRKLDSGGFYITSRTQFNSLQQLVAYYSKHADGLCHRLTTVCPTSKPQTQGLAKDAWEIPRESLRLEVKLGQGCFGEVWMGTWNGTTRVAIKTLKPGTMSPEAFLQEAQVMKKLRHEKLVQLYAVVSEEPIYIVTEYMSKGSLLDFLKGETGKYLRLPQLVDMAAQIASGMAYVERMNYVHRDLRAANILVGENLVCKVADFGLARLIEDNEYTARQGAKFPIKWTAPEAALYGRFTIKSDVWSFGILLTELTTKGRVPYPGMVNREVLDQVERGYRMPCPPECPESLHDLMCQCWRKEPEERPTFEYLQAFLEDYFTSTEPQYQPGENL

On to `Cn1cc(-c2cnc(Nc3cccc(Cn4nc(-c5cnn(C)c5)ccc4=O)c3)nc2)cn1`, for which the IC50 (at Ephrin type-A receptor 2; in series [2]; in [3]; in series [5]; in series [8]; in series [10]) was greater than 1000 nM throughout. In addition, the IC50 in series [11], in series [12] and in [15] was greater than 1000 nM throughout. Also, the CLH in the series on Liver microsome [1] was 36 mL/min/g; in the series with Liver microsome [14], 9 mL/min/g. Moreover, the solubility (kinetic) in series [4] and in [6] was 51 µM throughout. In series [7], this compound showed an AUC(0-t) at 8 h of 1750 ng·h/mL. Moreover, in series [9], the inhibition in vivo at 40 mg/kg turned out to be 68.6%. Moreover, the Papp A→B in [13] came out at 17 ×10⁻⁶ cm/s.

One may read the IC50 as the concentration needed to halve the response being measured. The kinetic solubility is the concentration staying in solution when a stock, usually in DMSO, is diluted into the medium. For orientation: AUC(0-t) means exposure summed from dosing to a finite time, without extrapolation to infinity. Higher therefore signals more exposure. For orientation: Papp A→B means how fast a substance crosses the layer from the apical side.
